≈ marks a conversion by molar mass, not a printed value.
system: MRSA; assay: Enhancement of the antibacterial activity of various antibiotics by flavone on MRSA; format: cell-based, Staphylococcus aureus; details: Staphylococcus aureus, antibiotics alone
Protocol: MRSA were employed as bacteria to be tested. The antibacterial activity was determined according to the agar plate dilution method defined by Japan Society of Chemotherapy (Chemotherapy 29(1), 76-79(1981)). The employed plate medium for the measurement of sensitivity was semisynthetic medium based on Mueller-Hinton Agar, and the bacteria solution for seeding was prepared by incubating the test bacterium in Mueller-Hinton Broth at 37° C. for 20 hours, followed by diluting in 0.85% saline to give 10^6 CFU/mL. The test samples were produced in two times-serial dilution method. To this plate medium for the measurement of sensitivity, was seeded a bacteria solution with a Micro Planter® (Sakuma Seisakusho). After incubating at 37° C. for 20 hours, a minimum inhibitory concentration (MIC) was determined. […] In addition, MIC50 indicates a concentration yielding the proliferation inhibitory effect in 50% of total number of MRSA strains, whilst MIC90 indicates a concentration yielding the proliferation inhibitory effect in 90% of total number of MRSA strains.
Antibacterial Activities of Various β-Lactam Antibiotics on MRSA with 50 μg/mL of Flavone

MIC [µg/mL]	Structure (SMILES)
> 1020	CO/N=C(\C(=O)N[C@@H]1C(=O)N2C(C(=O)O)=C(COC(C)=O)CS[C@H]12)c1csc(N)n1 [cefotaxime]
512	CO[C@@]1(NC(=O)Cc2cccs2)C(=O)N2C(C(=O)O)=C(COC(N)=O)CS[C@@H]21 [cefoxitin]
> 256	CC1=C(C(=O)O)N2C(=O)[C@@H](NC(=O)[C@H](N)C3=CCC=CC3)[C@H]2SC1 [cefradine]
1020	CO/N=C(\C(=O)N[C@@H]1C(=O)N2C(C(=O)O)=C(COC(N)=O)CS[C@H]12)c1ccco1 [cefuroxime]
64	CC(=N)N1CC[C@H](SC2=C(C(=O)O)N3C(=O)[C@H]([C@@H](C)O)[C@H]3C2)C1 [panipenem]
128	CC(Oc1ccccc1)C(=O)N[C@@H]1C(=O)N2[C@@H]1SC(C)(C)[C@@H]2C(=O)O (stereo partly shown) [phenethicillin]

Structure (SMILES)	MIC [µg/mL]
Cc1onc(-c2ccccc2)c1C(=O)N[C@@H]1C(=O)N2[C@@H]1SC(C)(C)[C@@H]2C(=O)O [oxacillin]	512

same assay, conditions: addition of 50 μg/mL of flavone

MIC +flavone [µg/mL]	Structure (SMILES)
64	CO/N=C(\C(=O)N[C@@H]1C(=O)N2C(C(=O)O)=C(COC(C)=O)CS[C@H]12)c1csc(N)n1 [cefotaxime]
32	CO[C@@]1(NC(=O)Cc2cccs2)C(=O)N2C(C(=O)O)=C(COC(N)=O)CS[C@@H]21 [cefoxitin]
1	CC1=C(C(=O)O)N2C(=O)[C@@H](NC(=O)[C@H](N)C3=CCC=CC3)[C@H]2SC1 [cefradine]
512	CO/N=C(\C(=O)N[C@@H]1C(=O)N2C(C(=O)O)=C(COC(N)=O)CS[C@H]12)c1ccco1 [cefuroxime]
0.002	CC(=N)N1CC[C@H](SC2=C(C(=O)O)N3C(=O)[C@H]([C@@H](C)O)[C@H]3C2)C1 [panipenem]
16	CC(Oc1ccccc1)C(=O)N[C@@H]1C(=O)N2[C@@H]1SC(C)(C)[C@@H]2C(=O)O (stereo partly shown) [phenethicillin]

Structure (SMILES)	MIC +flavone [µg/mL]
Cc1onc(-c2ccccc2)c1C(=O)N[C@@H]1C(=O)N2[C@@H]1SC(C)(C)[C@@H]2C(=O)O [oxacillin]	1

system: MRSA infected mouse; assay: Antibacterial activity on MRSA infected mouse (survival rate after 5 days); format: in vivo; details: antibiotic alone, 0.5 mg/mouse, after 5 days
Protocol: MRSA was incubated with Brain-Heart Infusion medium at 37° C. for 18 hours, and then the bacteria were collected and washed, followed by resuspension in saline. The suspension was admixed in an aqueous 5% gastric mucin solution and the concentration was adjusted to a predetermined value. Then, 0.2 mL of the mixture was intraperitoneally administered to an ICR strain SPF mouse. At one hour after the infection, various concentrations of β-lactam agents and rutin (0.2 mL) was subcutaneously administered, and survival rate was analyzed after 5 days and thus the effectiveness was evaluated. In addition, the effectiveness by oral administration (0.2 mL) was evaluated and various concentrations of β-lactam agents and rutin (0.2 mL) were administered using a gastric probe 1 hour or 5 hours prior to the infection.

Structure (SMILES)	survival rate [%]
Cc1onc(-c2ccccc2)c1C(=O)N[C@@H]1C(=O)N2[C@@H]1SC(C)(C)[C@@H]2C(=O)O [oxacillin]	20

same assay, conditions: antibiotic alone, 1 mg/mouse, after 5 days

Structure (SMILES)	survival rate [%]
Cc1onc(-c2ccccc2)c1C(=O)N[C@@H]1C(=O)N2[C@@H]1SC(C)(C)[C@@H]2C(=O)O [oxacillin]	0

same assay, conditions: antibiotic alone, 5 mg/mouse, after 5 days

Structure (SMILES)	survival rate [%]
Cc1onc(-c2ccccc2)c1C(=O)N[C@@H]1C(=O)N2[C@@H]1SC(C)(C)[C@@H]2C(=O)O [oxacillin]	20

same assay, conditions: antibiotic alone, 10 mg/mouse, after 5 days

Structure (SMILES)	survival rate [%]
Cc1onc(-c2ccccc2)c1C(=O)N[C@@H]1C(=O)N2[C@@H]1SC(C)(C)[C@@H]2C(=O)O [oxacillin]	20

same assay, conditions: antibiotic alone, 15 mg/mouse, after 5 days

Structure (SMILES)	survival rate [%]
Cc1onc(-c2ccccc2)c1C(=O)N[C@@H]1C(=O)N2[C@@H]1SC(C)(C)[C@@H]2C(=O)O [oxacillin]	0

same assay, conditions: oral, antibiotic 10 mg/mouse with rutin 5 mg/mouse

Structure (SMILES)	survival rate [%]
Cc1onc(-c2ccccc2)c1C(=O)N[C@@H]1C(=O)N2[C@@H]1SC(C)(C)[C@@H]2C(=O)O [oxacillin]	20

same assay, conditions: oral, antibiotic 10 mg/mouse with rutin 10 mg/mouse

Structure (SMILES)	survival rate [%]
Cc1onc(-c2ccccc2)c1C(=O)N[C@@H]1C(=O)N2[C@@H]1SC(C)(C)[C@@H]2C(=O)O [oxacillin]	20

same assay, conditions: oral, antibiotic 15 mg/mouse with rutin 5 mg/mouse

Structure (SMILES)	survival rate [%]
Cc1onc(-c2ccccc2)c1C(=O)N[C@@H]1C(=O)N2[C@@H]1SC(C)(C)[C@@H]2C(=O)O [oxacillin]	40

same assay, conditions: oral, antibiotic 15 mg/mouse with rutin 10 mg/mouse

Structure (SMILES)	survival rate [%]
Cc1onc(-c2ccccc2)c1C(=O)N[C@@H]1C(=O)N2[C@@H]1SC(C)(C)[C@@H]2C(=O)O [oxacillin]	40

same assay, conditions: oxacillin alone, all doses

Structure (SMILES)	survival rate [%]
Cc1onc(-c2ccccc2)c1C(=O)N[C@@H]1C(=O)N2[C@@H]1SC(C)(C)[C@@H]2C(=O)O [oxacillin]	≤ 20

same assay, conditions: rutin alone, oral, 1 mg/mouse

Structure (SMILES)	survival rate [%]
C[C@@H]1O[C@@H](OC[C@H]2O[C@@H](Oc3c(-c4ccc(O)c(O)c4)oc4cc(O)cc(O)c4c3=O)[C@H](O)[C@@H](O)[C@@H]2O)[C@H](O)[C@H](O)[C@H]1O [rutin]	20

same assay, conditions: rutin alone, oral, 5 mg/mouse

Structure (SMILES)	survival rate [%]
C[C@@H]1O[C@@H](OC[C@H]2O[C@@H](Oc3c(-c4ccc(O)c(O)c4)oc4cc(O)cc(O)c4c3=O)[C@H](O)[C@@H](O)[C@@H]2O)[C@H](O)[C@H](O)[C@H]1O [rutin]	20

same assay, conditions: rutin alone, oral, 10 mg/mouse

Structure (SMILES)	survival rate [%]
C[C@@H]1O[C@@H](OC[C@H]2O[C@@H](Oc3c(-c4ccc(O)c(O)c4)oc4cc(O)cc(O)c4c3=O)[C@H](O)[C@@H](O)[C@@H]2O)[C@H](O)[C@H](O)[C@H]1O [rutin]	20

same assay, conditions: rutin alone, oral, 15 mg/mouse

Structure (SMILES)	survival rate [%]
C[C@@H]1O[C@@H](OC[C@H]2O[C@@H](Oc3c(-c4ccc(O)c(O)c4)oc4cc(O)cc(O)c4c3=O)[C@H](O)[C@@H](O)[C@@H]2O)[C@H](O)[C@H](O)[C@H]1O [rutin]	40

same assay, conditions: rutin alone, subcutaneous, 1 mg/mouse

Structure (SMILES)	survival rate [%]
C[C@@H]1O[C@@H](OC[C@H]2O[C@@H](Oc3c(-c4ccc(O)c(O)c4)oc4cc(O)cc(O)c4c3=O)[C@H](O)[C@@H](O)[C@@H]2O)[C@H](O)[C@H](O)[C@H]1O [rutin]	40

same assay, conditions: rutin alone, subcutaneous, 5 mg/mouse

Structure (SMILES)	survival rate [%]
C[C@@H]1O[C@@H](OC[C@H]2O[C@@H](Oc3c(-c4ccc(O)c(O)c4)oc4cc(O)cc(O)c4c3=O)[C@H](O)[C@@H](O)[C@@H]2O)[C@H](O)[C@H](O)[C@H]1O [rutin]	40

same assay, conditions: rutin alone, subcutaneous, 10 mg/mouse

Structure (SMILES)	survival rate [%]
C[C@@H]1O[C@@H](OC[C@H]2O[C@@H](Oc3c(-c4ccc(O)c(O)c4)oc4cc(O)cc(O)c4c3=O)[C@H](O)[C@@H](O)[C@@H]2O)[C@H](O)[C@H](O)[C@H]1O [rutin]	20

same assay, conditions: rutin alone, subcutaneous, 15 mg/mouse

Structure (SMILES)	survival rate [%]
C[C@@H]1O[C@@H](OC[C@H]2O[C@@H](Oc3c(-c4ccc(O)c(O)c4)oc4cc(O)cc(O)c4c3=O)[C@H](O)[C@@H](O)[C@@H]2O)[C@H](O)[C@H](O)[C@H]1O [rutin]	40

same assay, conditions: subcutaneous, antibiotic 10 mg/mouse with rutin 5 mg/mouse

Structure (SMILES)	survival rate [%]
Cc1onc(-c2ccccc2)c1C(=O)N[C@@H]1C(=O)N2[C@@H]1SC(C)(C)[C@@H]2C(=O)O [oxacillin]	40

same assay, conditions: subcutaneous, antibiotic 10 mg/mouse with rutin 10 mg/mouse

Structure (SMILES)	survival rate [%]
Cc1onc(-c2ccccc2)c1C(=O)N[C@@H]1C(=O)N2[C@@H]1SC(C)(C)[C@@H]2C(=O)O [oxacillin]	80

same assay, conditions: subcutaneous, antibiotic 15 mg/mouse with rutin 5 mg/mouse

Structure (SMILES)	survival rate [%]
Cc1onc(-c2ccccc2)c1C(=O)N[C@@H]1C(=O)N2[C@@H]1SC(C)(C)[C@@H]2C(=O)O [oxacillin]	60

same assay, conditions: subcutaneous, antibiotic 15 mg/mouse with rutin 10 mg/mouse

Structure (SMILES)	survival rate [%]
Cc1onc(-c2ccccc2)c1C(=O)N[C@@H]1C(=O)N2[C@@H]1SC(C)(C)[C@@H]2C(=O)O [oxacillin]	60

system: not listed separately; assay: Dissolution of rutin (auxiliary effects of L-arginine hydrochloride and L-cysteine); solubility in water; format: physicochemical; details: aqueous with cosolvent or surfactant or cyclodextrin; solution with 4 mmol L-arginine hydrochloride, 1 mmol L-cysteine, 8 mmol 1 N NaOH, adjusted to pH 8.5, precipitate removed
Protocol: To the solution B, is added 3.5 mL of the solution A. After adjusting the pH of the mixture to 8.5 with HCl, the mixture is filtered to give an injectable.

Structure (SMILES)	solubility [mg/mL]
C[C@@H]1O[C@@H](OC[C@H]2O[C@@H](Oc3c(-c4ccc(O)c(O)c4)oc4cc(O)cc(O)c4c3=O)[C@H](O)[C@@H](O)[C@@H]2O)[C@H](O)[C@H](O)[C@H]1O [rutin]	49.8 (≈ 81.6 mM)

Reference: patent publication US20040229825A1, “Pharmaceutical composition for treatment of infection with drug resistant bacterium and disinfectant” (priority 2003, published 2004)
